Data: patent publication EP0563345B1, “NOVEL 4-ARYLPIPERAZINES AND 4-ARYLPIPERIDINES” (MCNEILAB, INC., priority 1991, dated 1993)
Like-named read-outs stand apart in the source and are kept apart here.

Tests used:
Male, Fischer 344 rats = experiment: Block of Conditioned Avoidance Responding (Rat) test (CAR); details: for CAR 5 mg/kg IP Administration (% change CAR) / CAR 15 mg/kg IP Administration (% change CAR): negative number = blockade of CAR; for CAR IP Administration (% change CAR) at 30 mg/kg: 30 mg/kg IP
Text: Apparatus: Rat operant chambers, housed within sound attenuated booths, both from Capden Instruments Ltd., were used in this test. The test chamber (8" H x […] D) is constructed of aluminum and plexiglass with floor grid bars of stainless-steel (1/8" O.D.) spaced 9/16" apart. A stainless-steel operation level 1-1/2" wide projects 3/4" into the chamber and is positioned 2-2/8" above the grid floor. The shock stimulus is delivered via the grid floor by a Coulbourn Instruments solid state module. The parameters of the test and the collection of data are controlled automatically.
The rats are trained for two weeks to approach criterion levels in the avoidance test (90% avoidance rate). One-hour training sessions are run at about the same time each day for four or five days a week. The training session consists of 120 trials, with the conditioned stimuli presented every 30 sec. A trial begins with presentation of the conditioned stimuli (a light and a tone). If the rat responds by depressing the operant lever during the 15-second presentation of the conditioned stimuli, the trial is terminated and the animal is credited with a CAR. Failure to respond during the conditioned stimuli causes the presentation of the unconditioned stimulus (UCS), a 0.7 mA shock which is accompanied by a light and tone for five seconds. If the rat depressed the lever within the ten-second period, the shock and trial are terminated and an escape response recorded. If the rat fails to depress the lever during the UCS (shock), the trial is terminated after ten seconds of shock and the absence of a response is scored as a failure to escape. Intertrial level presses have no effect. If a rat performs at the 90% CAR level for two weeks, it is then run twice a week on the test schedule (see below) until baseline performance stabilized.
Trained rats are run in a one-hour session on two consecutive days at the same time and in the same test chamber each day. The sessions consist of 60 trials, one every minute. The conditioned stimuli are presented for 15 sec (maximum) and the unconditioned stimuli five sec (maximum). On Day 1, a vehicle solution is administered to the rats at a time preceding the trial run corresponding to the pretreatment time for the test compound. The route of administration and the volume of vehicle are also matched to that of the test compound.
The percent change in CAR on the drug treatment day compared to vehicle pretreatment day is the key measure. The percent change (% change) in CAR is determined using the following formula: % change CAR = ((% CAR for Day 2/% CAR for Day 1) x 100)-100 [formula]
A negative number indicates a blockade of CAR, whereas a positive number would indicate increased CAR. The test results are reported as the mean % change for the group of rats. Failure to escape, a measure of the general sedative potential of the compound, was calculated for each animal as follows: % Failures = # of Failures to Escape/# of trials [formula]
The % failures, viz., loss of escape, is also reported as a group mean. Failures to escape are monitored closely and a session is terminated if ten failures occurred.
In the Tables and formulas therein, OiPr is isopropoxy, Me is methyl, MeO is methoxy, Et is ethyl, Ph is phenyl, n-Bu is normal butyl, cC6H11 is cyclohexyl, BOC is t-butyloxycarbonyl, Ac is acetyl, and NT is not tested in that partcular test. The escape loss numbers are shown at CAR 5 mg/kg unless otherwise noted.

Male Charles-River rats = experiment: Rat Glass Bead Test (propulsive motility of the distal colon); type: in vivo; details: mean expulsion time of glass bead
Procedure: The rat glass bead test is used to evaluate the action of compounds on propulsive motility of the distal colon. Male Charles-River rats weighing 50-90 grams are fasted for at least 18 hours in individual cages with water provided. Groups of rats are then dosed by the indicated route at the appropriate pretreatment time. A 4 mm glass bead is then inserted 3.5 cm into the distal colon through the anus using a 4 mm diameter glass rod. Rats are then placed in open top glass jars and observed for 60 minutes. The time for expulsion of the bead is noted for each rat. Rats not expelling the bead after 60 minutes are necropsied and the presence of the bead in the colon confirmed. […] Statistical analysis is done using one way analysis of variance and Fisher's LSD comparison. A probability of less than 0.05 is considered to be statistically significant.

[1] = target: T1, D-2 (dopamine-2) receptors (Rattus norvegicus, UniProt P61169); experiment: biochemical; type: binding, male, Wistar rats
T1 construct: The D2 assay employed a P2 fraction from the striatum, the ligand ^3H-spiperone at a concentration of 0.05 nM; from tissue; host or cells: rat striatum, P2 fraction (synaptosomal membranes), male Wistar rats
Procedure: The dopamine D2 binding activity of compounds was determined using a P2 fraction (synaptosomal membranes) prepared from male, Wistar rats.
The data from this assay were analyzed by calculating the percent inhibition of the binding of the tritiated ligands by given concentrations of the test compound. Kl values, where given, were obtained from the logit analysis of concentration-inhibition curves.

[2] = rat striatum P2 fraction, 3H-spiperone 0.05 nM, read-out: Receptor Binding (Ki nM) D2

T1 sequence (P61169 whole entry): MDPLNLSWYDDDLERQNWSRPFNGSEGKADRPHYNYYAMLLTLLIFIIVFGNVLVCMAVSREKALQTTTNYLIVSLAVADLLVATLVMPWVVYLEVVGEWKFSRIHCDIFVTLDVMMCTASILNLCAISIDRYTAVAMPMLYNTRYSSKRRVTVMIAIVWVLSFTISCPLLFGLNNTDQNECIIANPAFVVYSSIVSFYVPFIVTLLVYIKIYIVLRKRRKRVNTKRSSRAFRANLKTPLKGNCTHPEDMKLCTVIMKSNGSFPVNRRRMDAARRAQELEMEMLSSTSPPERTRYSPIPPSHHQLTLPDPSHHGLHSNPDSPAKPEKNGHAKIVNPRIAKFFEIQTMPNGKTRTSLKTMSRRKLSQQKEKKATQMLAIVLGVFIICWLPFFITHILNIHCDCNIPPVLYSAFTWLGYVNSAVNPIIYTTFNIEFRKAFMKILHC

| Compound | CAR 5 mg/kg IP Administration (% change CAR) (Male, Fischer 344 rats) | (Escape Loss) % failures to escape (Male, Fischer 344 rats; at CAR 5 mg/kg IP) | CAR 15 mg/kg IP Administration (% change CAR) (Male, Fischer 344 rats) | (Escape Loss) % failures to escape (Male, Fischer 344 rats; at CAR 15 mg/kg IP) | Ki [1, 2] | further results |
| --- | --- | --- | --- | --- | --- | --- |
| CCOc1ccccc1N1CCN(Cc2cccc(C(=O)N3CCCCCC3)c2)CC1 [Compound 83] | -97% | 26% |  |  |  | Glass bead expulsion time (Male Charles-River rats; IP, 1.0 mg/kg): 21 min |
| O=C(c1cccc(CN2CCN(c3cccc4ccccc34)CC2)c1)N1CCCCC1 [Compound 35] |  |  | -19% | 0% |  | Glass bead expulsion time (Male Charles-River rats; PO, 10.0 mg/kg): 19 min |
| CCOC(=O)C1CCN(C(=O)c2cccc(CN3CCN(c4ccccc4OC(C)C)CC3)c2)CC1 [Compound 42] | -18% | 0% |  |  | 121 nM |  |
| CC(C)Oc1ccccc1N1CCN(Cc2cccc(C(=O)N3CCC[C@H]3C(=O)OCc3ccccc3)c2)CC1 [Compound 13] |  |  | -4% | 0% | 10 nM |  |
| CC(C)Oc1ccccc1N1CCN(Cc2cccc(C(=O)NCCCCCCNC(=O)OC(C)(C)C)c2)CC1 [Compound 98] |  |  | -8% | 0% | 88 nM |  |
| CC(C)Oc1ccccc1N1CCN(Cc2cccc(C(=O)N3CCC[C@H]3CO)c2)CC1 [Compound 16] |  |  | -99% | 35% | 5.1 nM |  |
| CC(C)Oc1ccccc1N1CCN(Cc2ccc(N)c(C(=O)N3CCCCC3)c2)CC1 [Compound 17] |  |  | -100% | 87% | 6.4 nM |  |
| CC(C)Oc1ccccc1N1CCN(Cc2cccc(C(=O)N3CCN(Cc4ccccc4)CC3)c2)CC1 [Compound 64] |  |  |  |  | 40 nM | CAR IP Administration (% change CAR) at 30 mg/kg (Male, Fischer 344 rats): -23%; (Escape Loss) % failures to escape (Male, Fischer 344 rats; at CAR 30 mg/kg IP): 2% |
| COc1ccc(OC)c(N2CCN(Cc3cccc(C(=O)N4CCCCC4)c3)CC2)c1 [Compound 46] | -66% | 48% |  |  | 592 nM |  |
| CC(C)Oc1ccccc1C1CCN(Cc2cccc(C(=O)N3CCCCC3)c2)CC1.Cl [Compound 38, 1-[3-[[4-[2-(1-Methylethoxy)phenyl]-1-piperidinyl]methyl]benzoyl]-piperidine hydrochloride] | -92% | 5% |  |  | 2.8 nM |  |
| CC(C)Oc1ccccc1N1CCN(Cc2cccc(C(=O)N3CCN(c4ccccc4OC(C)C)CC3)c2)CC1 [Compound 50] | 0% | 1% |  |  | 171 nM |  |
| CCOC(=O)C1CCCCN1C(=O)c1cccc(CN2CCN(c3ccccc3OC(C)C)CC2)c1 (stereo not shown) [Compound 19] |  |  | -97% | 46% | 4.1 nM |  |
| CC(C)Oc1ccccc1N1CCN(Cc2cccc(C(=O)Nc3ccc(F)cc3)c2)CC1 [Compound 75] |  |  |  |  | ~30 nM | CAR IP Administration (% change CAR) at 30 mg/kg (Male, Fischer 344 rats): -1%; (Escape Loss) % failures to escape (Male, Fischer 344 rats; at CAR 30 mg/kg IP): 0% |
| CC(C)Oc1ccccc1N1CCN(Cc2cccc(S(=O)(=O)N3CCCC3)c2)CC1 [Compound 106] | -27% | 0% |  |  | 196 nM |  |
| CC(C)Oc1ccccc1N1CCN(Cc2cccc(C(=O)N3CCCCCCC3=O)c2)CC1 [Compound 67] | -28% | 7% |  |  | 10.2 nM |  |
| CC(C)Oc1ccccc1N1CCN(Cc2cccc(C(=O)NCCCCCCN)c2)CC1 [Compound 97] |  |  | -99% | 26% | 15 nM |  |
| CC(C)Oc1ccccc1N1CCN(Cc2cccc(C(=O)N3C(C)(C)CCCC3(C)C)c2)CC1 [Compound 12] |  |  | -92% | 9% | 4.7 nM |  |

| Compound | CAR 5 mg/kg IP Administration (% change CAR) (Male, Fischer 344 rats) | (Escape Loss) % failures to escape (Male, Fischer 344 rats; at CAR 5 mg/kg IP) | CAR 15 mg/kg IP Administration (% change CAR) (Male, Fischer 344 rats) | (Escape Loss) % failures to escape (Male, Fischer 344 rats; at CAR 15 mg/kg IP) | Ki [1, 2] | further results |
| --- | --- | --- | --- | --- | --- | --- |
| CC(C)Oc1ccccc1N1CCN(Cc2cccc(C(=O)N3CCC4CCCCC4C3)c2)CC1 (stereo not shown) [Compound 61] | -36% | 3% |  |  | 11.4 nM |  |
| COc1ccc(CN2CCC(c3ccccc3OC(C)C)CC2)cc1C(=O)N1[C@H](C)CCC[C@@H]1C [Compound 15] |  |  | -86% | 30% | 43 nM |  |
| C[C@@H]1CCC[C@H](C)N1C(=O)c1cccc(CN2CCN(c3ccc(Cl)c(Cl)c3)CC2)c1 [Compound 14] |  |  | -63% | 3% | 6.5 nM |  |
| CC(C)Oc1ccccc1C1CCN(Cc2cccc(C(=O)N3CCOCC3)c2)CC1 [Compound 41] | -96% | 70% |  |  | 9.6 nM |  |
| CC(C)Oc1ccccc1N1CCN(Cc2cccc(C(=O)N(C)Cc3ccccc3)c2)CC1 [Compound 74] | -23% | 1% |  |  | 13 nM |  |
| CC(C)Oc1ccccc1N1CCN(Cc2cccc(C(=O)N3CCOCC3)c2)CC1 [Compound 56] |  |  |  |  |  | Glass bead expulsion time (Male Charles-River rats; IP, 1.0 mg/kg): 15 min |
| O=C(c1cccc(CN2CCN(c3ncccn3)CC2)c1)N1CCc2ccccc21 [Compound 23] |  |  | -62% | 9% | > 1000 nM |  |
| O=C(c1cccc(CN2CCN(c3cc(Cl)cc(Cl)c3)CC2)c1)N1CCCCC1 [Compound 94] | -43% | 3% |  |  | 21 nM |  |
| CC(C)Oc1ccccc1N1CCN(Cc2cccc(S(=O)(=O)N3CCC(O)CC3)c2)CC1 [Compound 107, 1-[3-[[4[2-(1-Methylethoxy)phenyl]-1-piperazinyl]methyl]phenylsulfonyl]-4-hydroxypiperidine] | -95% | 5% |  |  | 69 nM |  |
| CCN1CCCC1CNC(=O)c1cccc(CN2CCN(c3ccccc3OC(C)C)CC2)c1 (stereo not shown) [Compound 76] |  |  | -75% | 0% | 13.9 nM |  |
| COc1ccc(CN2CCN(c3ccccc3OC(C)C)CC2)cc1C(=O)N1CCCCC1 [Compound 29] | -98% | 50% |  |  | 32 nM |  |
| CC(C)Oc1ccccc1N1CCN(Cc2cccc(C(=O)N3CCC(=O)CC3)c2)CC1 [Compound 44] | -68% | 16% |  |  |  | Ki [1]: 42 nM |
| CC(=O)Nc1ccc(CN2CCN(c3ccccc3OC(C)C)CC2)cc1C(=O)N1CCCCC1 [Compound 28] |  |  | -100% | 17% | 29 nM |  |
| CC(C)Oc1ccccc1N1CCN(Cc2cccc(C(=O)N3CCC4(CC3)OCCO4)c2)CC1 [Compound 45] | -95% | 20% |  |  |  | Ki [1]: 20 nM |
| CC(C)Oc1ccccc1N1CCN(Cc2cccc(C(=O)N(C)CCc3ccccc3)c2)CC1 [Compound 43] |  |  | -77% | 0% | 19 nM |  |
| CC(C)Oc1ccccc1N1CCN(Cc2cccc(C(=O)N3CCCCC3CO)c2)CC1 (stereo not shown) [Compound 21] |  |  | -99% | 43% | 5.2 nM |  |
| CC(C)Oc1ccccc1N1CCN(Cc2cccc(C(=O)N3CCCC3CO)c2)CC1 (stereo not shown) [Compound 26] |  |  | -100% | 43% | 9 nM |  |
